Source: patent US20200071667A1, “COMPOSITION COMPRISING GLYCYRRHIZIN FOR INDUCING DIFFERENTIATION INTO MYELOID-DERIVED SUPPRESSOR CELL FROM MYELOID CELL” (Konkuk University Glocal Industry-Academic Collabo, priority 2018, published 2020)

Tests used:
[1] = test system: myeloid cells obtained from blood, the heart, and the lungs; experiment: Flow cytometric analysis of MDSC ratio in myeloid cells of mice with LPS-induced sepsis (in vivo); design: species or system C57BL/6 mice
Experimental: (§1) Animal experiments were performed according to the National Institutes of Health (NIH) guidelines for the care and use of experimental animals. This study was conducted with the approval of the Konkuk University Animal Care and Use Committee (KU16062). 8-week-old male C57BL/6 mice without specific pathogens were used, and as needed, experimental groups were divided into three groups: a control, an LPS group, and an LPS+GR group.
(§2) Specifically, 0.1 ml of phosphate buffered saline (PBS; Gibco, Grand Island, N.Y., USA) was injected intraperitoneally (i.p.) into mice of the control, and 12 hours after the injection, 0.1 ml of PBS was intraperitoneally injected again into each mouse. 1 μg of LPS (Escherichia coli serotype 0111:B4, Sigma-Aldrich, St. Louis, Mo., USA) dissolved in 0.1 ml of PBS was injected intraperitoneally (i.p.) into mice of the LPS group to induce sepsis, and 12 hours after sepsis induction, 0.1 ml of PBS was intraperitoneally injected into each mouse. […]
The myeloid cells obtained from blood, the heart, or the lungs were washed with fluorescence-activated cell sorting (FACS) buffer (PBS containing 1% bovine serum albumin and 0.01% NaN3). […]

[2] = test system: heart tissues and lung tissues; experiment: Histopathologic analysis and injury score of heart and lung tissues in LPS-induced sepsis; assay type: in vivo, C57BL/6 mice; conditions: 5-point scale 0-4; LPS 1 μg i.p.; GR 100 mg/kg i.p. twice
Experimental: as §1
Specifically, 0.1 ml of phosphate buffered saline (PBS; Gibco, Grand Island, N.Y., USA) was injected intraperitoneally (i.p.) into mice of the control, and 12 hours after the injection, 0.1 ml of PBS was intraperitoneally injected again into each mouse. […]
Specifically, the heart tissues and lung tissues of mice of each experimental group prepared in Example 1 were fixed in a 4% paraformaldehyde solution (Biosesang, Seongnam, Korea) at 25° C. overnight and inserted into paraffin blocks. […] Heart (including left and right ventricles) or lung injury was scored based on Table 2 below. Each score was determined by a 5-point scale such as 0: minimal injury, 1: minor injury, 2: moderate injury, 3: severe injury, and 4: maximum injury.

[3] = test system: IL-6; experiment: ELISA of IL-6 in BALF and blood of mice with LPS-induced sepsis; assay type: in vivo, C57BL/6 mice; conditions: 12 hours after final injection
Experimental: as §2
(§3) Specifically, for the analysis of bronchoalveolar lavage fluid and blood, 12 hours after the final injection into mice of each experimental group of Example 1, 1 μg/g of Zoletil®50 (a combined preparation of tiletamine and zolazepam, Virbac Laboratories, Carros, France) as an anesthetic and 0.1 U/g of heparin sodium (Green Cross Co., Yongin, Korea) were intraperitoneally injected into each mouse to minimize the effect of aches or pains on immunity. […] The levels of tumor necrosis factor (TNF)-α, IL-6, and IL-1β in BALF and blood were measured using a mouse enzyme-linked ELISA kit (R&D Systems Inc., Minneapolis, Minn., USA) according to the manufacturer's instructions. Samples collected from each group were analyzed in triplicate.

[4] = test system: tumor necrosis factor (TNF)-α; experiment: ELISA of TNF-α in BALF and blood of mice with LPS-induced sepsis; assay type: in vivo, C57BL/6 mice; conditions: 12 hours after final injection
Experimental: as §2, §3

lipopolysaccharide [LPS]
ratio of MDSCs to myeloid cells (MDSCs/myeloid cells) ([1]; myeloid cells from blood, heart or lungs, LPS 1 μg i.p., GR 100 mg/kg i.p. twice): significantly reduced compared to the control | blood ratio of MDSCs to CD11+GR1 myeloid cells ([1]; preliminary study using 6 mice with LPS-induced sepsis, blood): 18.4±3.13% | injury score, heart tissues [2]: 3.3±0.8 | injury score, lung tissues [2]: 3.5±0.5 | IL-6 ([3]; BALF): 650.26 ± 11.02 pg/µL | IL-6 ([3]; Blood): 172.63 ± 14.22 pg/µL | TNF-α ([4]; BALF): 284.20 ± 56.96 pg/µL | TNF-α ([4]; Blood): 98.78 ± 9.17 pg/µL
